The structures appear in SMILES notation.

The experiment deals with castrated male Sprague Dawley rats. The experiment can be described thus: Ventral Prostate and Seminal Vesicle Weight In Vivo Assay. Further: key: active: the non weight adjusted prostate weight was ≦40 mg or the % Inhibition prostate weight, body weight adjusted was ≧40%@2 mg/day dosage; inactive: did not meet the specified criteria defined above. To be noted: inhibition of testosterone-enhanced prostate weight; immature castrated rats, once daily for five days, usually orally 40 mg/kg, with testosterone propionate 2 mg/kg s.c. How it is done: Ventral Prostate and Seminal Vesicle Weight In Vivo Assay
Immature (approximately 50 g) castrated male Sprague Dawley rats (Charles River) were treated once daily for five days with test compound (usually given orally at 40 mg/kg in a volume of 0.3 mL, in 30% cyclodextrin or 0.5% methylcellulose vehicle) and with testosterone propionate (given subcutaneously by injection at the nape of the neck at 2 mg/kg, in a volume of 0.1 mL in sesame oil). On the sixth day, the rats were euthanized by asphyxiation in carbon dioxide. Ventral prosatates and seminal vesicles were removed and their wet weights determined. Test compound activity was determined as the percent inhibition of testosterone-enhanced tissue weights, with a vehicle-treated control group set to zero percent and a testosterone alone-treated control group set to 100%.
Representative compounds of the present invention were tested according to the procedure described, with results as listed in Table 7 below. A test compound is listed as “active” if the non weight adjusted prostate weight was ≦40 mg or the % Inhibition prostate weight, body weight adjusted was ≧40%@2 mg/day dosage. ID50's, if determined, of ≦15 mg/day also indicated an “active” compound.
On to `N#Cc1cccc(Cn2c(CC(F)(F)F)nc3cc(Cl)c(Cl)cc32)c1` [Compound 109, 3-[5,6-Dichloro-2-(2,2,2-trifluoro-ethyl)-benzoimidazol-1-ylmethyl]-benzonitrile], for which the outcome was active.
The value for `N#Cc1ccccc1Cn1c(CC(F)(F)F)nc2cc(Cl)c(Cl)cc21` [Compound 110, 2-[5,6-Dichloro-2-(2,2,2-trifluoro-ethyl)-benzoimidazol-1-ylmethyl]-benzonitrile] was “active”; that for `Cc1cc2nc(C(O)C(F)(F)F)[nH]c2cc1C` (stereo not shown) [Compound 111, 1-(5,6-Dimethyl-1H-benzoimidazol-2-yl-)2,2,2-trifluoro-ethanol] was “inactive”; that for `OC(c1nc2cc(Cl)c(F)cc2[nH]1)C(F)(F)F` (stereo not shown) [Compound 112, 1-(5-Chloro-6-fluoro-1H-benzoimidazol-2-yl-)2,2,2-trifluoro-ethanol] was “active”.
Turning to `OC(c1nc2cc(F)c(F)cc2[nH]1)C(F)(F)F` (stereo not shown) [Compound 113, 1-(5,6-Difluoro-1H-benzoimidazol-2-yl-)2,2,2-trifluoro-ethanol], the result was inactive.
To `O=C(c1nc2cc(Cl)c(Cl)cc2[nH]1)C(F)(F)F` [Compound 114, 1-(5,6-DiChloro-1H-benzoimidazol-2-yl)-2,2,2-trifluoro-ethanone] belongs “active”.
To `Fc1ccc(OCCn2c(CC(F)(F)F)nc3cc(Cl)c(Cl)cc32)cc1` [Compound 115, 5,6-Dichloro-1-[2-(4-fluoro-phenoxy)-ethyl]-2-(2,2,2-trifluoro-ethyl)-1H-benzoimidazole] belongs “active”.
To `N#Cc1ccc(Cn2c(CC(F)(F)F)nc3cc(Cl)c(Cl)cc32)cc1` [Compound 116, 4-[5,6-Dichloro-2-(2,2,2-trifluoro-ethyl)-benzoimidazol-1-ylmethyl]-benzonitrile] belongs “active”; to `Fc1ccccc1Cn1c(CC(F)(F)F)nc2cc(Cl)c(Cl)cc21` [Compound 117, 5,6-Dichloro-1-(2-fluoro-benzyl)-2-(2,2,2-trifluoro-ethyl)-1H-benzoimidazole], “active”.
`Fc1cccc(Cn2c(CC(F)(F)F)nc3cc(Cl)c(Cl)cc32)c1` [Compound 119, 5,6-Dichloro-1-(3-fluoro-benzyl)-2-(2,2,2-trifluoro-ethyl)-1H-benzoimidazole]: the outcome was active.
Turning to `FC(F)(F)Cc1nc2cc(Cl)c(Cl)cc2n1Cc1cccc(Cl)c1` [Compound 120, 5,6-Dichloro-1-(3-chloro-benzyl)-2-(2,2,2-trifluoro-ethyl)-1H-benzoimidazole], the result was active.
To `FC(F)(F)Cc1nc2cc(Cl)c(Cl)cc2n1Cc1ccc(Cl)cc1` [Compound 121, 5,6-Dichloro-1-(4-chloro-benzyl)-2-(2,2,2-trifluoro-ethyl)-1H-benzoimidazole] belongs “active”; to `Fc1cccc(OCCn2c(CC(F)(F)F)nc3cc(Cl)c(Cl)cc32)c1` [Compound 123, 5,6-Dichloro-1-[2-(3-fluoro-phenoxy)-ethyl]-2-(2,2,2-trifluoro-ethyl)-1H-benzoimidazole], “inactive”; to `FC(F)(F)Cc1nc2cc(Cl)c(Cl)cc2n1CCOc1ccc(Cl)cc1` [Compound 124, 5,6-Dichloro-1-[2-(4-chloro-phenoxy)-ethyl]-2-(2,2,2-trifluoro-ethyl)-1H-benzoimidazole], “active”.
To `FC(F)(F)Cc1nc2cc(Cl)c(Cl)cc2n1Cc1ccccc1Cl` [Compound 125, 5,6-Dichloro-1-(2-chloro-benzyl)-2-(2,2,2-trifluoro-ethyl)-1H-benzoimidazole] belongs “active”.
The value for `Cc1onc(-c2ccccc2)c1C(=O)Cn1c(CC(F)(F)F)nc2cc(Cl)c(Cl)cc21` [Compound 126, 2-[5,6-Dichloro-2-(2,2,2-trifluoro-ethyl)-benzoimidazol-1-yl]-1-(5-methyl-3-phenyl-isoxazol-4-yl)-ethanone] was “inactive”.
